What all share (assay type): in vivo
For test [1], the system named is boll weevil (Anthonomus grandis). Description: Boll weevil control, insect diet in 96-well microtiter plates. As to conditions: 120 h, egg and larval mortality after 5 days, read-out: mortality in comparison with untreated controls. Here is the method: B.1 Boll Weevil (Anthonomus grandis)
For evaluating control of boll weevil (Anthonomus grandis) the test unit consisted of 96-well-microtiter plates containing an insect diet and 5-10 A. grandis eggs.
The compounds were formulated using a solution containing 75% v/v water and 25% v/v DMSO. Different concentrations of formulated compounds were sprayed onto the insect diet at 5 μl, using a custom built micro atomizer, at two replications.
After application, microtiter plates were incubated at about 25±10C and about 75±5% relative humidity for 5 days. Egg and larval mortality was then visually assessed.

The subject of test [2] is Orchid thrips (Dichromothrips corbetti). The test is described as follows: Orchid thrips floral-immersion test. To be noted: 72 hours after treatment, read-out: mortality in comparison with untreated controls. Here is the method: B.5 Orchid Thrips (Dichromothrips Corbetti)
Dichromothrips corbetti adults used for bioassay are obtained from a colony maintained continuously under laboratory conditions. For testing purposes, the test compound is diluted in a 1:1 mixture of acetone:water (vol:vol), plus 0.01% vol/vol Alkamuls® EL 620 surfactant.
Thrips potency of each compound is evaluated by using a floral-immersion technique. Plastic petri dishes are used as test arenas. All petals of individual, intact orchid flowers are dipped into treatment solution and allowed to dry. Treated flowers are placed into individual petri dishes along with about 20 adult thrips. The petri dishes are then covered with lids. All test arenas are held under continuous light and a temperature of about 28° C. for duration of the assay. After 3 days, the numbers of live thrips are counted on each flower, and along inner walls of each petri dish. The percent mortality is recorded 72 hours after treatment.

Test [3] relates to Green soldier stink bug (Nezara viridula). Description: Green soldier stink bug test, sprayed soybean pods. As to conditions: 120 h, after 5 days, 3rd instar, read-out: mortality in comparison with untreated controls. The procedure: B.8 Green Soldier Stink Bug (Nezara viridula)
The active compound is dissolved at the desired concentration in a mixture of 1:1 (vol:vol) distilled water:aceteone. Surfactant (Kinetic HV) is added at a rate of 0.01% (vol/vol). The test solution is prepared at the day of use.
Soybean pods were placed in microwavable plastic cups lined with moist filter paper and inoculated with ten 3rd instar N. viridula. Using a hand atomizer, approximately 2 ml solution is sprayed into each cup. Treated cups were kept at about 28-29° C. and relative humidity of about 50-60%. Percent mortality was recorded after 5 days.

For test [4], the system named is Rice brown plant hopper (Nilaparvata lugens). Description: Rice brown plant hopper test, sprayed rice seedlings. To be noted: after 72 hours, read-out: mortality in comparison with untreated controls. The procedure:
B.9 Rice Brown Plant Hopper (Nilaparvata lugens)
Rice seedlings are cleaned and washed 24 hours before spraying. The active compounds is formulated in 50:50 acetone:water (vol:vol) and 0.1% vol/vol surfactant (EL 620) was added. Potted rice seedlings are sprayed with 5 ml test solution, air dried, placed in cages and inoculated with 10 adults. Treated rice plants are kept at about 28-29° C. and relative humidity of about 50-60%. Percent mortality is recorded after 72 hours.

Test [5] relates to vetch aphid (Megoura viciae). The test is described as follows: Vetch aphid control, contact or systemic, broad bean leaf disks. As to conditions: foliar, 120 h, aphid mortality after 5 days, read-out: mortality in comparison with untreated controls. The procedure: B.3 Vetch Aphid (Megoura viciae)
For evaluating control of vetch aphid (Megoura viciae) through contact or systemic means the test unit consisted of 24-well-microtiter plates containing broad bean leaf disks.
The compounds were formulated using a solution containing 75% v/v water and 25% v/v DMSO. Different concentrations of formulated compounds were sprayed onto the leaf disks at 2.5 μl, using a custom built micro atomizer, at two replications.
After application, the leaf disks were air-dried and 5-8 adult aphids were placed on the leaf disks inside the microtiter plate wells. The aphids were then allowed to suck on the treated leaf disks and were incubated at about 23±10C and about 50±5% relative humidity for 5 days. Aphid mortality and fecundity was then visually assessed.

The subject of test [6] is green peach aphid (Myzus persicae). The test is described as follows: Green peach aphid control, systemic, artificial diet under membrane. As to conditions: 72 h, aphid mortality after 3 days, read-out: mortality in comparison with untreated controls. An excerpt:
B.4 Green Peach Aphid (Myzus persicae)
For evaluating control of green peach aphid (Myzuspersicae) through systemic means, the test unit consists of 96-well-microtiter plates containing liquid artificial diet under an artificial membrane.
The compounds are formulated using a solution containing 75% v/v water and 25% v/v DMSO. Different concentrations of formulated compounds are pipetted into the aphid diet, using a custom built pipetter, at two replications.
After application, 5-8 adult aphids are placed on the artificial membrane inside the microtiter plate wells. The aphids are then allowed to suck on the treated aphid diet and incubated at about 23±10C and about 50±5% relative humidity for 3 days. Aphid mortality and fecundity is then visually assessed.

In test [7] the test system is Silverleaf whitefly (Bemisia argentifolii). Description: Silverleaf whitefly test, sprayed cotton plants. To be noted: 72 h, 3 days after treatment, adults, read-out: mortality in comparison with untreated controls. An excerpt: B.12 Silverleaf Whitefly (Bemisia argentifolii)
The active compounds are formulated in cyclohexanone as a 10,000 ppm solution supplied in tubes. The tubes are inserted into an automated electrostatic sprayer equipped with an atomizing nozzle and they serve as stock solutions for which lower dilutions are made in 50% acetone:50% water (v/v). A nonionic surfactant (Kinetic®) is included in the solution at a volume of 0.01% (v/v).
Cotton plants at the cotyledon stage (one plant per pot) are sprayed by an automated electrostatic plant sprayer equipped with an atomizing spray nozzle. The plants are dried in the sprayer fume hood and then removed from the sprayer. Each pot is placed into a plastic cup and about 10 to 12 whitefly adults (approximately 3-5 days old) are introduced. The insects are collected using an aspirator and a nontoxic Tygon® tubing connected to a barrier pipette tip. The tip, containing the collected insects, is then gently inserted into the soil containing the treated plant, allowing insects to crawl out of the tip to reach the foliage for feeding. Cups are covered with a reusable screened lid. […] Mortality is assessed 3 days after treatment, compared to untreated control plants.

For test [8], the system named is Rice green leafhopper (Nephotettix virescens). The test is described as follows: Rice green leafhopper test, sprayed rice seedlings. As to conditions: after 72 hours, read-out: mortality in comparison with untreated controls. Here is the method:
B.7 Rice Green Leafhopper (Nephotettix virescens)
Rice seedlings are cleaned and washed 24 hours before spraying. The active compounds are formulated in 50:50 acetone:water (vol:vol), and 0.1% vol/vol surfactant (EL 620) is added. Potted rice seedlings are sprayed with 5 ml test solution, air dried, placed in cages and inoculated with 10 adults. Treated rice plants are kept at about 28-29° C. and relative humidity of about 50-60%. Percent mortality is recorded after 72 hours.

In test [9] the test system is Diamond back moth (Plutella xylostella). Description: Diamond back moth test, dipped cabbage leaves. To be noted: 72 hours after treatment, 3rd instar larvae, read-out: mortality in comparison with untreated controls. Here is the method: B.10 Diamond Back Moth (Plutella xylostella)
The active compound is dissolved at the desired concentration in a mixture of 1:1 (vol:vol) distilled water:aceteone. Surfactant (Alkamuls® EL 620) is added at a rate of 0.1% (vol/vol). The test solution is prepared at the day of use.
Leaves of cabbage were dipped in test solution and air-dried. Treated leaves were placed in petri dish eslined with moist filter paper and inoculated with ten 3rd instar larvae. Mortality was recorded 72 hours after treatment. Feeding damages were also recorded using a scale of 0-100%.

Test [10] deals with Southern armyworm (Spodoptera eridania). The test is described as follows: Southern armyworm test, sprayed lima bean plants. As to conditions: 96 h, 4 days after treatment, larvae, read-out: mortality in comparison with untreated controls. Here is the method:
B.13 Southern Armyworm (Spodoptera eridania)
The active compounds were formulated in cyclohexanone as a 10,000 ppm solution supplied in tubes. The tubes were inserted into an automated electrostatic sprayer equipped with an atomizing nozzle and they served as stock solutions for which lower dilutions were made in 50% acetone:50% water (v/v). A nonionic surfactant (Kinetic®) was included in the solution at a volume of 0.01% (v/v).
Lima bean plants (variety Sieva) were grown 2 plants to a pot and selected for treatment at the 1st true leaf stage. Test solutions were sprayed onto the foliage by an automated electrostatic plant sprayer equipped with an atomizing spray nozzle. The plants were dried in the sprayer fume hood and then removed from the sprayer. Each pot was placed into perforated plastic bags with a zip closure. About 10 to 11 armyworm larvae were placed into the bag and the bags zipped closed. Test plants were maintained in a growth room at about 250C and about 20-40% relative humidity for 4 days, avoiding direct exposure to fluorescent light (24 hour photoperiod) to prevent trapping of heat inside the bags. Mortality and reduced feeding were assessed 4 days after treatment, compared to untreated control plants.

Test [11] relates to Cowpea aphid (Aphis craccivora). The test is described as follows: Cowpea aphid test, sprayed potted cowpea plants. As to conditions: after 72 hours, read-out: mortality in comparison with untreated controls. Here is the method:
B.6 Cowpea Aphid (Aphis craccivora)
(§1) The active compound is dissolved at the desired concentration in a mixture of 1:1 (vol:vol) distilled water:acetone. Surfactant (Alkamuls® EL 620) is added at a rate of 0.1% (vol/vol). The test solution is prepared at the day of use.
Potted cowpea plants are colonized with approximately 50-100 aphids of various stages by manually transferring a leaf tissue cut from infested plant 24 hours before application. Plants are sprayed after the pest population has been recorded. Treated plants are maintained on light carts at about 28° C. Percent mortality is assessed after 72 hours.

Test [12] concerns Mediterranean fruitfly (Ceratitis capitata). Description: Mediterranean fruitfly control, insect diet in microtiter plates. To be noted: 120 h, egg and larval mortality after 5 days, read-out: mortality in comparison with untreated controls. The procedure: B.2 Mediterranean Fruitfly (Ceratitis capitata)
For evaluating control of Mediterranean fruitfly (Ceratitis capitata) the test unit consisted of microtiter plates containing an insect diet and 50-80 C. capitata eggs. The compounds were formulated using a solution containing 75% v/v water and 25% v/v DMSO. Different concentrations of formulated compounds were sprayed onto the insect diet at 5 μl, using a custom built micro atomizer, at two replications.
After application, microtiter plates were incubated at about 28±1° C. and about 80±5% relative humidity for 5 days. Egg and larval mortality was then visually assessed.

Test [13] concerns Cotton aphid (Aphis gossypih). The test is described as follows: Cotton aphid test, sprayed potted plants. To be noted: after 72 hours, read-out: mortality in comparison with untreated controls. Here is the method:
B.11 Cotton Aphid (Aphis gossypih)
as §1
Potted cowpea plants were colonized with approximately 50-100 aphids of various stages by manually transferring a leaf tissue cut from infested plant 24 hours before application. Plants were sprayed after the pest population has been recorded. Treated plants are maintained on light carts at about 28° C. Percent mortality was assessed after 72 hours.

`O=C(C[N+](=O)[O-])/N=c1\ccccn1Cc1ccc(Cl)nc1` [Compound E1.4]: the mortality at 2500 ppm in test [1], in [5], in test [6] and in test [12] was no less than 75% throughout. For the same compound, the mortality at 500 ppm is no less than 75% in test [2]; greater than 75% in test [3]; no less than 75% in test [4]; no less than 75% in test [7]; no less than 75% in [8]; greater than 75% in [9]. Besides, the mortality at 500 ppm in [10] is no less than 75%; in [11], no less than 75%; in [13] it was greater than 75%.

With `CC(C)/C=C(/C(=O)/N=c1\ccccn1Cc1ccc(Cl)nc1)[N+](=O)[O-]` [Compound E3.1], the mortality at 500 ppm in test [2] is no less than 75%; in test [7], no less than 75%; in test [8], no less than 75%; in test [11] it was no less than 75%; in test [13], greater than 75%. Moreover, the mortality at 2500 ppm in test [5], in test [6] and in test [12] was no less than 75% in each case.

For `O=C(/N=c1\ccccn1Cc1ccc(Cl)nc1)C1([N+](=O)[O-])CC1c1ccccc1` (stereo not drawn) [Compound E2.3], the mortality at 2500 ppm in [5] and in [6] was no less than 75% in each case. The mortality at 500 ppm in test [11] is no less than 75%.

Broadly, the mortality is the share of the test organisms that died.

The values are drawn from patent US20180179177A1, “N-ACYLIMINO HETEROCYCLIC COMPOUNDS FOR CONTROLLING INVERTEBRATE PESTS” (BASF SE, priority 2014, published 2018).
